Laboratory results as given in publication PMC11274715 (2024).

Tests used:
Assay in all cases: ITC
Settings in all cases: 40 mM NaCl, 5 mM MgCl2; 25 mM Tris-HCl pH 7.5, 25 °C; single-site model
[1] = system: SAM-VI AP RNA (RNA, riboswitch) CGUAUCAUUGUGCCUUAUCCGCAAAAGGCGGGUAGGGCGAUAAGUCCGAAAGAGGGAUGAUAUG
[2] = system: SAM-VI WT RNA (RNA, riboswitch) ACAACAGAAUGAACCAACGUAUCAUUGUGCCUUAUCCGCAAAAGGCGGGUAGGGCGAUAAGUCCGAAAGAGGGAUGAUAUG
[3] = system: SAM-VI M2 RNA (RNA, riboswitch) ACAACAGAAUGAACCAACGUAUCAUUGUGCCUUAUCCGCAAAAGGCGGGUAGGGCGAUAAGUCCGAAAGAGGGAUGAU

affinity [1]: 5.33 µM
affinity [2]: 8.95 µM
Kd [3]: 419.95 µM
Compound: C[S+](CC[C@H](N)C(=O)O)C[C@H]1O[C@@H](n2cnc3c(N)ncnc32)[C@H](O)[C@@H]1O (stereo partly drawn)
